{"source": "patent US5246969A", "about": "“Di-propargyl-containing aryl/alkylsulfonyl-terminated alanine amino-diol compounds for treatment of hypertension” (G. D. Searle & Co., priority 1992, dated 1993)", "origin": "cited, not measured here", "test_system": "hog renin", "conditions": "nephrectomized rats after the injection of hog renin", "note": "Square brackets hold non-standard residues; d marks the D form. Peptide text beside a SMILES is read from it. * marks the point of attachment. Sta = CC(C)C[C@H](N)[C@@H](O)CC(=O)O; Isovaleryl = CC(C)CC(=O)*"}
{"molecule": "CC(C)CC(=O)N[C@H](C(=O)N[C@H](C(=O)N[C@@H](CC(C)C)[C@@H](O)CC(=O)N[C@@H](C)C(=O)N[C@@H](CC(C)C)[C@@H](O)CC(=O)O)C(C)C)C(C)C", "note": "[pepstatin] (Isovaleryl-VV[Sta]A[Sta]-OH)", "values": [{"measurement": "blood pressure in vivo", "result": "reduce blood pressure"}]}
